Results on 21 compounds are retold here after ChEMBL document CHEMBL3352039, “Semisynthesis of triptolide analogues: effect of B-ring substituents on cytotoxic activities” (Bioorg Med Chem Lett, 2014).

One assay has as its system U-251. The assay can be described thus: Cytotoxicity against human U251 cells assessed as inhibition of cell proliferation by sulforhodamine B assay. Format: functional, cell-based. Background: Sulforhodamine B stains cellular protein and so reports cell mass.
Assay [1] can be described thus: Cytotoxicity against human PC3 cells assessed as inhibition of cell proliferation by sulforhodamine B assay. Format: functional, cell-based. Conditions: PC-3.

In general, IC50 refers to the point on the concentration scale where inhibition reaches its midpoint. With `CC(C)[C@]12O[C@H]1[C@@H]1O[C@]13[C@]1(O[C@H]1C[C@@]1(Br)C4=C(CC[C@]31C)C(=O)OC4)[C@@H]2O`, the 50% inhibitory concentration (IC50) in the assay with U-251 amounted to 796 nM; in assay [1], 333 nM.

Take `CC(C)[C@]12O[C@H]1[C@@H]1O[C@@]13[C@@]1(C)CCC4=C(COC4=O)[C@]1(Cl)C[C@@H]1O[C@@]13[C@]21CO1`: the results for the IC50 (with U-251; in assay [1]) were 925 nM and 871 nM, respectively.

`CC(C)[C@]12O[C@H]1[C@@H]1O[C@@]13[C@@]1(C)CCC4=C(COC4=O)[C@]1(Br)C[C@@H]1O[C@@]13C2=O`: the IC50 is 558 nM in the assay on U-251 and 104 nM in assay [1].

For the compound `CC(C)[C@]12O[C@H]1[C@@H]1O[C@@]13[C@@]1(C)CCC4=C(COC4=O)[C@]1(O)[C@@H](O)[C@@H]1O[C@@]13C2=O`, the IC50 in the assay on U-251 worked out at 2970 nM; in assay [1], 2270 nM.

`CC(C)[C@]12O[C@H]1[C@@H]1O[C@@]13[C@@]1(C)CCC4=C(COC4=O)[C@@H]1C[C@@H]1O[C@@]13C2=O` [TRIPTONIDE]: the IC50 in the assay with U-251 was determined as 31 nM; in assay [1], 26 nM.

For `CC(C)[C@]12O[C@H]1[C@@H]1O[C@]13[C@]1(O[C@H]1C[C@@]1(O)C4=C(CC[C@]31C)C(=O)OC4)[C@@H]2O`, the IC50 in the assay with U-251 turned out to be 488 nM; in assay [1] it was 275 nM.

Take `CC(C)[C@]12O[C@H]1[C@@H]1O[C@]13[C@]1(O[C@H]1[C@H](O)[C@@]1(O)C4=C(CC[C@]31C)C(=O)OC4)[C@@H]2O`: the IC50 in the assay on U-251 came out at 1580 nM; in assay [1], 589 nM.

Turning to `CC(C)[C@]12O[C@H]1[C@@H]1O[C@@]13[C@@]1(C)CCC4=C(COC4=O)C1=C[C@@H]1O[C@@]13C2=O`, the IC50 in the assay with U-251 worked out at 1630 nM; in assay [1], 171 nM.

With `CC(C)[C@]12O[C@H]1[C@@H]1O[C@@]13[C@@]1(C)CCC4=C(COC4=O)[C@]1(O)C[C@@H]1O[C@@]13[C@]21CO1`, the IC50 in the assay with U-251 amounted to 5470 nM; in assay [1] it was 2610 nM.

For the compound `CC(C)[C@]12O[C@H]1[C@@H]1O[C@@]13[C@@]1(C)CCC4=C(COC4=O)[C@]1(O)C[C@@H]1O[C@@]13C2=O`, the half-inhibitory concentration (IC50) in the assay on U-251 worked out at 1030 nM; in assay [1], 377 nM.

Regarding `CC(C)[C@]12O[C@H]1[C@@H]1O[C@]13[C@]1(O[C@H]1C=C1C4=C(CC[C@@]13C)C(=O)OC4)[C@@H]2O`, the IC50 stood at 718 nM with U-251 and 126 nM in assay [1].

In the case of `CC(C)[C@]12O[C@H]1[C@@H]1O[C@@]13[C@@]1(C)CCC4=C(COC4=O)[C@]1(Br)C[C@@H]1O[C@@]13[C@]21CO1`, the IC50 came out at 2040 nM with U-251 and 893 nM in assay [1].

With `CC(C)[C@]12O[C@H]1[C@@H]1O[C@@]13[C@@]1(C)CCC4=C(COC4=O)[C@]1(F)C[C@@H]1O[C@@]13C2=O`, the IC50 with U-251 is 429 nM; in assay [1], 223 nM.

Turning to `CC(C)[C@]12O[C@H]1[C@@H]1O[C@@]13[C@@]1(C)CCC4=C(COC4=O)[C@@]1(O)[C@@H](O)[C@@H]1O[C@@]13C2=O`, the figures for the IC50 (in the assay on U-251; in assay [1]) were 9860 nM and 5040 nM, respectively.

Take `CC(C)[C@]12O[C@H]1[C@@H]1O[C@@]13[C@@]1(C)CCC4=C(COC4=O)[C@]1(Cl)C[C@@H]1O[C@@]13C2=O`: the IC50 in the assay on U-251 is 170 nM; in assay [1], 85 nM.

On to `CC(C)[C@]12O[C@H]1[C@@H]1O[C@@]13[C@@]1(C)CCC4=C(COC4=O)[C@@]14O[C@H]4[C@@H]1O[C@@]13C2=O`, for which the results for the IC50 (with U-251; in assay [1]) were 197 nM and 4050 nM, respectively.

For `CC(C)[C@]12O[C@H]1[C@@H]1O[C@]13[C@]1(O[C@H]1[C@H](O)[C@@]1(O)C4=C(CC[C@]31C)C(=O)OC4)[C@H]2O`, the IC50 (in the assay with U-251; in assay [1]) was more than 10000 nM in each case.

Turning to `CC(C)[C@]12O[C@H]1[C@@H]1O[C@]13C(=CC[C@H]1C4=C(CC[C@@]13C)C(=O)OC4)[C@@H]2O`, the IC50 (with U-251; in assay [1]) was more than 10000 nM each time.

Consider `CC(C)[C@]12O[C@H]1[C@@H]1O[C@]13[C@]1(O[C@H]1C=C1C4=C(CC[C@@]13C)C(=O)OC4)[C@H]2O`, for which the results for the IC50 (in the assay on U-251; in assay [1]) were 5040 nM and 3220 nM, respectively.

For `CC(C)[C@]12O[C@H]1[C@@H]1O[C@]13[C@]1(O[C@H]1C[C@H]1C4=C(CC[C@@]13C)C(=O)OC4)[C@@H]2O` [TRIPTOLIDE], the IC50 worked out at 33 nM in the assay with U-251 and 20 nM in assay [1].

For the compound `CC(C)[C@]12O[C@H]1[C@@H]1O[C@]13[C@@]1(O[C@@H]1C[C@H]1C4=C(CC[C@@]13C)C(=O)OC4)[C@@H]2O`, the IC50 (in the assay with U-251; in assay [1]) was more than 10000 nM each time.
